These are literature values, as cited in patent US6767895B2 (priority 2000, dated 2004).

For this series the following is noted: in vivo; cited from earlier work.

Regarding contulakin-G, the “potency in inhibiting pain relative to neurotensin” value is given as “significantly more potent than neurotensin”.
